# Source: the Kinase Knowledgebase extract (Sharma et al. 2016)
# pIC50: −log10 of the molar value.
# Target: EGFR (UniProt P00533)
# Sequence (P00533 whole entry, looked up): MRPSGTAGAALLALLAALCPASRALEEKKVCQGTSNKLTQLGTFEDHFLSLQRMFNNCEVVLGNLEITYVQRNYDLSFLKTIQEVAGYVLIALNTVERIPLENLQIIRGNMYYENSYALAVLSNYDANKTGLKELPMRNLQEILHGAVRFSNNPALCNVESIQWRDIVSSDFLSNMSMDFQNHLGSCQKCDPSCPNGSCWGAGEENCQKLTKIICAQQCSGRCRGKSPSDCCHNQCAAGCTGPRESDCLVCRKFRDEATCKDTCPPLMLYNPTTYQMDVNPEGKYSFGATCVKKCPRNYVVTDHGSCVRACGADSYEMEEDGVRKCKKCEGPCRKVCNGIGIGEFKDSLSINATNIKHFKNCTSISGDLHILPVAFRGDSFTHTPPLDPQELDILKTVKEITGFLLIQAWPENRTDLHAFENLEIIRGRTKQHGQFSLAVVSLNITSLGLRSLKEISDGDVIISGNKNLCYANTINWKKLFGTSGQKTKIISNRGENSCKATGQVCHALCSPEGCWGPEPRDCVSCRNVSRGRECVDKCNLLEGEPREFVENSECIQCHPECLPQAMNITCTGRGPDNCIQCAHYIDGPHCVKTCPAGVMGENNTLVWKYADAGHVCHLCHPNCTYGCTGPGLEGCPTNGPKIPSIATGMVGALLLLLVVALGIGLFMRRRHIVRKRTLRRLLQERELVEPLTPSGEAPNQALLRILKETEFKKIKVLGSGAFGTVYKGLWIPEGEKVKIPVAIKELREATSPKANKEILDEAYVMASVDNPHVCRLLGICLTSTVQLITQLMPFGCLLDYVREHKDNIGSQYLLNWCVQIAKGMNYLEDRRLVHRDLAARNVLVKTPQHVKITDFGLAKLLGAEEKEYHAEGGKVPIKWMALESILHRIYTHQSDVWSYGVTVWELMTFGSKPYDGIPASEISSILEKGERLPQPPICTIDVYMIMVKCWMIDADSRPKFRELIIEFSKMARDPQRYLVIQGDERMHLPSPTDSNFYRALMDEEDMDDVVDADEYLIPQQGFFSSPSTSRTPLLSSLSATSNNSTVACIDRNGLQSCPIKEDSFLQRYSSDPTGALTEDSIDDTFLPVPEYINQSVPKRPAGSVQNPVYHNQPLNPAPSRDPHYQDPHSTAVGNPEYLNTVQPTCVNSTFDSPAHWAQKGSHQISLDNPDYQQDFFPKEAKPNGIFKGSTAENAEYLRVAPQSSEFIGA
row,pIC50,SMILES
1,< 4.00,CNC(=O)Nc1csc2ccccc2c1=O
2,< 4.00,CCNC(=O)Nc1coc2ccccc2c1=O
3,< 4.00,CCCCNC(=O)Nc1csc2ccccc2c1=O
4,< 4.00,O=C(O)C(=O)Nc1csc2ccccc2c1=O
5,< 4.00,COC(=O)C(=O)Nc1csc2ccccc2c1=O
6,< 4.00,CCNC(=O)NC1=CS(=O)(=O)c2ccccc2C1=O
7,< 4.00,CN(C)C(=O)Nc1coc2ccccc2c1=O
8,< 4.00,CCNC(=O)Nc1csc2ccc(OC)cc2c1=O
9,< 4.00,CCNC(=O)Nc1csc2ccc(F)cc2c1=O
10,< 4.00,CCOC(=O)NC(=O)Nc1csc2ccccc2c1=O
11,4.60,O=c1cc(-c2ccc(O)cc2)oc2cc(O)cc(O)c12
12,< 4.00,CN(C)Cc1coc2ccccc2c1=O
13,< 4.00,CC(C)(C)NC(=O)Nc1coc2ccccc2c1=O
14,4.30,O=c1cc(-c2ccccc2)oc2ccccc12
15,< 4.00,CCNC(=O)Nc1csc2ccc(C)cc2c1=O
16,< 4.00,O=C(O)C(=O)Nc1cc(=O)c2ccccc2s1
17,< 4.00,CNC(=O)Nc1coc2ccccc2c1=O
18,< 4.00,CCCCNC(=O)Nc1coc2ccccc2c1=O
19,< 4.00,CCC(=O)Nc1csc2ccccc2c1=O
20,< 4.00,CCNC(=O)Nc1csc2ccccc2c1=O
21,< 4.00,CC(C)NC(=O)Nc1coc2ccccc2c1=O
22,< 4.00,O=C(CCO)Nc1csc2ccccc2c1=O
